Experimental data reported in patent US11220534B2, “Treatment of neurological diseases” (Lancaster University Business Enterprises Limited, priority 2016, dated 2022).
Where no end group is shown, it is not given here. [ ]: non-standard residue; d: D form. Aib = CC(C)(N)C(=O)O

Legend:
[1] = tested on: APP/PS1 mouse model of AD; settings: 12 months old APP/PS1 mice; cited from earlier work
[2] = tested on: MPTP mouse model of Parkinson's disease; settings: cited from earlier work
APP/PS1 transgenic mice [3] = assay: Immunohistochemical measurement of synaptic densities (synaptophysin) in the cortex of APP/PS1 transgenic mice; format: in vivo; settings: 10 nmol/kg i.p. once daily for 8 weeks, FIG. 2, N=6 per group
Excerpt: (§1) Animal models have been developed to test novel drugs. A standard model for Alzheimer's disease is transgenic mice that express human mutated genes for amyloid production that are known to induce Alzheimer's disease in humans. These APP/PS1 transgenic mice recapitulate some of the symptoms of Alzheimer's disease such as the aggregation of amyloid in the brain, memory loss and the loss of synapses (Radde et al., 2006).
(§2) The APP/PS1 mice express human Swedish mutated APP and human mutated presenilin-1 which induce Alzheimer's Disease in humans.
(§3) The dose of peptide tested was 10 nmol/kg body weight. The peptides were administered by a once-daily intraperitoneal injection for 8 weeks. Saline injections were administered as a control. Six animals per group were injected with a peptide or a saline control.
Animals (6 per group) were perfused transcardially with 30 ml of ice-cold PBS and 30 ml of ice-cold 4% paraformaldehyde to postfix the brain. The brains were removed and placed in fresh 30% sucrose solution in PBS to cryoprotect tissue and cut at a thickness of 40 μm on a cryostat. Sections were chosen according to stereological rules, with the first section taken at random and every 5th section afterwards. Between 7 and 13 sections were analysed per brain. […]

C57BL/6 mice given MPTP [4] = assay: Immunohistochemistry for TH in the substantia nigra pars compacta, MPTP Parkinson mouse model; format: in vivo; settings: 10 nmol/kg i.p. once daily for 2 weeks, FIG. 4, N=6 per group
Excerpt: (§4) A standard model to induce Parkinson like symptoms in mice is the injection of the chemical (MPTP) (Li et al., 2009). This chemical impairs or kills neurons in the brain that produce dopamine. The mice develop motor impairments, and the dopaminergic neurons in the brain are reduced in numbers and function. The enzyme tyrosine hydroxylase (TH) is required to synthesise dopamine. A loss of TH signifies a loss of dopamine production (Harkavyi et al., 2008).
Adult male C57BL/6 mice were given the dopaminergic toxin MPTP (20 mg/kg in 0.1 mL of PBS i.p. at 2-h intervals of 4 doses MPTP; Sigma) or vehicle (PBS) for one day. […]
Immunohistochemistry for TH in the Substantia Nigra Pars Compacta and the Striatum Six animals per group were analysed for expression of tyrosine hydroxylase (TH), a marker for dopamine production. Coronal brain sections (20 μm) from striatum (bregma […]) and SNpc (bregma […]) were analysed by immunohistochemistry using antibodies recognising TH.
Sections were cut on a cryostat and postfixed in 4% paraformaldehyde, washed in PBS, treated with 0.3% H2O2 in methanol for 20 min, and washed again. […] For each animal, three tissue sections from one level of striatum were stained and analysed for TH-positive fibre innervation. […] Two tissue sections from each level were quantified by immunohistochemistry. […]

C57BL/6 mice given MPTP [5] = assay: Rotarod motor control test in the MPTP Parkinson mouse model; format: in vivo; settings: 10 nmol/kg i.p. once daily for 2 weeks, FIG. 3, N=6 per group
Excerpt: as §4
Adult male C57BL/6 mice were given the dopaminergic toxin MPTP (20 mg/kg in 0.1 mL of PBS i.p. at 2-h intervals of 4 doses MPTP; Sigma) or vehicle (PBS) for one day. This treatment selectively affects dopaminergic neurons and induces Parkinson-like symptoms in mice.
The dose of peptide tested was 10 nmol/kg body weight. The peptides were administered by a once-daily intraperitoneal injection for 2 weeks. Saline injections were administered as a control. Six animals per group were injected with a peptide or a saline control.
The rotarod consists of a rotating pole that accelerates over time. Mice are placed on the rod, and motor skills are tested by accelerating the rotation. As the rotation increases, animals lose grip and fall on a cushion located below the rod. […] Each animal's endurance time was recorded, and the average was calculated. Data were analysed using a one-way ANOVA with post-hoc Bonferroni tests.

APP/PS1 transgenic mice [6] = assay: Immunohistochemical measurement of beta-amyloid plaque load in the cortex of APP/PS1 transgenic mice; format: in vivo
Excerpt: as §1, §2, §3
Animals (6 per group) were perfused transcardially with 30 ml of ice-cold PBS and 30 ml of ice-cold 4% paraformaldehyde to postfix the brain. The brains were removed and placed in fresh 30% sucrose solution in PBS to cryoprotect tissue and cut at a thickness of 40 μm on a cryostat. Sections were chosen according to stereological rules, with the first section taken at random and every 5th section afterwards. Between 7 and 13 sections were analysed per brain.
Immunostaining techniques were used to assess the neuronal plaque load (anti beta-amyloid rabbit polyclonal antibody (1:200, rabbit polyclonal-Invitrogen 71-5800) and of synaptophysin (polyclonal rabbit anti-synaptophysin primary antibody, 1:2000, Abcam, Cambridge, UK) to measure the amount of synapses in the cortex. Brain samples were first exposed to 99% formic acid for 7 minutes and then washed 3 times for 10 minutes in TBS. Pre-treatment with 99% formic acid is known to drastically increase the detection of beta-Amyloid in formalin-fixed brain samples. Then samples were incubated in 0.3% H2O2 (Sigma Aldrich; Cat.-No.: 516813) in TBS for 30 minutes on the shaker to deplete endogenous peroxides activity, and were 3 times washed in TBS for 10 minutes afterwards.
To increase permeability of membranes in the brain tissue, samples were exposed to 0.3% Triton X-100 (Sigma Aldrich; Cat.-No.: 516813) in TBS for 10 minutes on the shaker. Unspecific proteinophilic binding in the tissue was saturated by incubating the samples with 5% goat serum (Gibco; Cat.-No.: 16210-064) in TBS for 30 minutes on the shaker.
A primary antibody against beta-Amyloid or synaptophysin was added and incubated overnight on the shaker at 4° C. The antibody was polyclonal and raised against a synthetic beta-Amyloid 1-43 peptide in rabbit. The primary antibody was used in a final dilution of 1 to 250 in TBS containing 2% goat serum and […]. […]

Substance	amyloid plaque load [1]	synaptic plasticity in area CA1 of the hippocampus and spatial memory formation [1]	motor impairment, chronic inflammation in the brain and loss of dopaminergic neurons induced by MPTP [2]	synapse loss / synaptic densities in the cortex (APP/PS1 transgenic mice [3])	MPTP-induced reduction of TH in the substantia nigra, pars compacta (protection of dopaminergic neurons) (C57BL/6 mice given MPTP [4])	impairment of motor skills (rotarod endurance time) (C57BL/6 mice given MPTP [5])	beta-amyloid plaque load in the cortex (% area positive for beta amyloid in cross sections of the brain cortex) (APP/PS1 transgenic mice [6]; 10 nmol/kg body weight, once-daily intraperitoneal injection for 8 weeks, FIG. 1, N=6 per group)	beta-amyloid plaque load compared with the single GIP or GLP-1 analogues (APP/PS1 transgenic mice [6]; 10 nmol/kg i.p. once daily for 8 weeks, FIG. 1)
D-Ala^2-GIP	much reduced	unimpaired	protective and prevented the impairment of motor activity, the loss of dopaminergic neurons, loss of synapses and the chronic inflammation response induced by MPTP	–	–	–	–	–
lixisenatide	–	–	good effects in preventing the motor impairment, chronic inflammation in the brain, and loss of dopaminergic neurons	–	–	–	–	–
YXEGTFTSDYSIYLDKQAAXEFVNWLLAGGPSSGAPPPSKKKKKK-NH2 (Y[Aib]EGTFTSDYSIYLDKQAA[Aib]EFVNWLLAGGPSSGAPPPSKKKKKK-NH2) [DA4, No. 11; X=aminoisobutyric acid]	–	–	–	protected from synapse loss	protected dopaminergic neurons at a greater rate than the single GIP and GLP-1 analogues	protect mice from an impairment of motor skills induced by MPTP	reduces beta-amyloid plaque load	superior to the single GIP or GLP-1 analogues
